Measurements from PMC10099666, “Structure Elucidation, Total Synthesis, Antibacterial In Vivo Efficacy and Biosynthesis Proposal of Myxobacterial Corramycin” (Angewandte Chemie (International Ed. in English), 2022).
In brackets after ≈: the same amount, converted by molar mass.

Columns and labels:
[1] = test system: E. coli isolate 2 (CTX-M-2); test: Cross-resistance MIC assay, clinical isolate; format: cell-based; set-up: unit not given beside the values; settings: E. coli isolate 2, CTX-M-2, resistance ESBL; protocol as section 5 (CAMHB; there µg mL-1); unit not given in Table S5
Protocol: (§1) 5. Determination of the minimal inhibitory concentration (MIC) in vitro The MIC of Corramycin was evaluated following the Clinical & Laboratory Standard Institute (CLSI; https://clsi.org) and EUCAST (https://eucast.org) guidelines. First, inoculi of the bacterial test strains were prepared by culturing isolated colonies in cation-adjusted Müller Hinton broth (CAMHB; 2 g L-1 beef infusion solids, 1.5 g L-1 starch, 17.5 g L-1 casein hydrolysates, final pH 7.4) at 37 °C and 180 rpm for 18 h. Next, Corramycin, which was dissolved in DMSO, was transferred into the first row of a 96-well plate to reach an end concentration of 64 µg mL-1 (in 100 µL total volume). A 1:1 serial dilution in cation-adjusted Mueller Hinton broth (CAMHB) of the test compound was done from the top row to the bottom […]
(§2) the respective test strains were transferred into the wells, reaching a total volume of 100 µL and 5x10^5 colony-forming units (CFU) mL-1. After a 20 to 22 h of incubation, the optical density was evaluated on a microplate reader and the MIC endpoint was determined as the lowest concentration of antibiotic at which there was no visible growth observed. Each MIC experiment was performed in duplicates. Table […]
(§3) (1 picture or pasted object on this page, not shown here)
(§4) 6. Investigation of the cross-resistance of Corramycin to clinically used antibiotics […]
(§5) of the MIC according to the protocol described in the previous section. The MIC of the respective antibiotics against 16 clinical isolate E. coli strains, which were obtained from P. Nordmann’s collection and were classified Carbapenem-resistant, Aminoglycoside-resistant or Quinolone-resistant, was […]
(§6) extended-spectrum β-lactamase; CP: carbapenem; AG: aminoglycoside; QL: quinolone; PRP

[2] = test system: E. coli isolate 3 (OXA-30); test: Cross-resistance MIC assay, clinical isolate; format: cell-based; set-up: unit not given beside the values; settings: E. coli isolate 3, OXA-30, resistance ESBL-CP; protocol as section 5 (CAMHB; there µg mL-1); unit not given in Table S5
Protocol: as §1, §2, §3, §4, §5, §6

[3] = test system: E. coli isolate 5 (TEM-3); format: cell-based; set-up: unit not given beside the values; settings: E. coli isolate 5, TEM-3, resistance ESBL; protocol as section 5 (CAMHB; there µg mL-1); unit not given in Table S5
Protocol: as §1, §2, §3, §4, §5, §6

[4] = test system: E. coli isolate 10 (OXA-48+CTX-M-15); test: Cross-resistance MIC assay, clinical isolate; format: cell-based; settings: E. coli isolate 10, OXA-48+CTX-M-15, resistance ESBL-CP; protocol as section 5 (CAMHB; there µg mL-1); unit not given in Table S5
Protocol: as §1, §2, §3, §4, §5, §6

[5] = test system: E. coli isolate 11 (RMT-B); test: Cross-resistance MIC assay, clinical isolate; format: cell-based; settings: resistance AG, protocol as section 5 (CAMHB; there µg mL-1), unit not given in Table S5
Protocol: as §1, §2, §3, §4, §5, §6

[6] = test system: E. coli isolate 6 (IMP-1); test: Cross-resistance MIC assay, clinical isolate; format: cell-based; settings: E. coli isolate 6, IMP-1, resistance ESBL-CP; protocol as section 5 (CAMHB; there µg mL-1); unit not given in Table S5
Protocol: as §1, §2, §3, §4, §5, §6

[7] = test system: E. coli isolate 7 (IMP-4); test: Cross-resistance MIC assay, clinical isolate; format: cell-based; settings: E. coli isolate 7, IMP-4, resistance ESBL-CP; protocol as section 5 (CAMHB; there µg mL-1); unit not given in Table S5
Protocol: as §1, §2, §3, §4, §5, §6

[8] = test system: E. coli isolate 1 (CTX-M-1); test: Cross-resistance MIC assay, clinical isolate; set-up: unit not given beside the values; settings: E. coli isolate 1, CTX-M-1, resistance ESBL; protocol as section 5 (CAMHB; there µg mL-1); unit not given in Table S5
[9] = test system: E. coli isolate 4 (SHV-2a); test: Cross-resistance MIC assay, clinical isolate; set-up: unit not given beside the values; settings: resistance ESBL, protocol as section 5 (CAMHB; there µg mL-1), unit not given in Table S5
[10] = test system: E. coli isolate 8 (KPC-2+TEM-1+OXA-9); test: Cross-resistance MIC assay, clinical isolate; set-up: unit not given beside the values; settings: E. coli isolate 8, KPC-2+TEM-1+OXA-9, resistance ESBL-CP; protocol as section 5 (CAMHB; there µg mL-1); unit not given in Table S5
[11] = test system: E. coli isolate 9 (OXA-48); test: Cross-resistance MIC assay, clinical isolate; set-up: unit not given beside the values; settings: E. coli isolate 9, OXA-48, resistance ESBL-CP; protocol as section 5 (CAMHB; there µg mL-1); unit not given in Table S5
[12] = test system: E. coli isolate 12 (ARM-A); test: Cross-resistance MIC assay, clinical isolate; set-up: unit not given beside the values; settings: resistance AG, protocol as section 5 (CAMHB; there µg mL-1), unit not given in Table S5
[13] = test system: E. coli isolate 13 (RMT-C); test: Cross-resistance MIC assay, clinical isolate; set-up: unit not given beside the values; settings: resistance AG, protocol as section 5 (CAMHB; there µg mL-1), unit not given in Table S5
[14] = test system: E. coli isolate 14 (qepA); test: Cross-resistance MIC assay, clinical isolate; set-up: unit not given beside the values; settings: resistance QL, protocol as section 5 (CAMHB; there µg mL-1), unit not given in Table S5
[15] = test system: E. coli isolate 15 (qnrA1); test: Cross-resistance MIC assay, clinical isolate; set-up: unit not given beside the values; settings: E. coli isolate 15, qnrA1, resistance QL; protocol as section 5 (CAMHB; there µg mL-1); unit not given in Table S5
[16] = test system: E. coli isolate 16 (QnrS1); test: Cross-resistance MIC assay, clinical isolate; set-up: unit not given beside the values; settings: E. coli isolate 16, QnrS1, resistance QL; protocol as section 5 (CAMHB; there µg mL-1); unit not given in Table S5

Which MIC [1] does the source give for CO/N=C(\C(=O)N[C@@H]1C(=O)N2C(C(=O)O)=C(COC(C)=O)CS[C@H]12)c1csc(N)n1 [Cefotaxim] here?
Its MIC is 64.

And the MIC [2]?
The MIC was 1.

What about the MIC [3] of the same compound?
The MIC was 64.

And the MIC [4]?
The MIC was over 64 µg/mL.

And the MIC [5]?
Its MIC is over 64 µg/mL.

And the MIC [6]?
Its MIC is 0.25 µg/mL (≈ 0.549 µM).

And the MIC [7]?
The MIC was over 64 µg/mL.

What about the MIC [8] of the same compound?
The MIC was over 64.

And the MIC [9]?
The MIC was 64.

And the MIC [10]?
Its MIC is over 64.

What about the MIC [11] of the same compound?
The MIC was over 64.

What about the MIC [12] of the same compound?
The MIC was over 64.

And the MIC [13]?
The MIC was over 64.

And the MIC [14]?
Its MIC is over 64.

What about the MIC [15] of the same compound?
The MIC was 32.

And the MIC [16]?
The MIC was over 64.

Which results are given for CO[C@@]1(NC(=O)Cc2cccs2)C(=O)N2C(C(=O)O)=C(COC(N)=O)CS[C@@H]21 [Cefoxitin]?
MIC [1]: 4; MIC [2]: 4; MIC [3]: 4; MIC [4]: 16 µg/mL (≈ 37.4 µM); MIC [5]: 16 µg/mL (≈ 37.4 µM); MIC [6]: 16 µg/mL (≈ 37.4 µM); MIC [7]: > 64 µg/mL; MIC [8]: 8; MIC [9]: 4; MIC [10]: 64; MIC [11]: 16; MIC [12]: 8; MIC [13]: > 64; MIC [14]: 8; MIC [15]: 8; MIC [16]: 8

What does the source list for CO[C@H]1/C=C/O[C@@]2(C)Oc3c(C)c(O)c4c(O)c(c(/C=N/N5CCN(C)CC5)c(O)c4c3C2=O)NC(=O)/C(C)=C\C=C\[C@H](C)[C@H](O)[C@@H](C)[C@@H](O)[C@@H](C)[C@H](OC(C)=O)[C@@H]1C [Rifampicin]?
MIC [3]: 16; MIC [4]: 16 µg/mL (≈ 19.4 µM); MIC [5]: 16 µg/mL (≈ 19.4 µM); MIC [6]: 16 µg/mL (≈ 19.4 µM); MIC [7]: 16 µg/mL (≈ 19.4 µM); MIC [9]: 16; MIC [11]: 64; MIC [12]: > 64; MIC [15]: > 64

What does the source list for CN(C)[C@@H]1C(O)=C(C(N)=O)C(=O)[C@@]2(O)C(O)=C3C(=O)c4c(O)cccc4[C@@](C)(O)[C@H]3C[C@@H]12 [Tetracyclin]?
MIC [1]: 32; MIC [14]: 4; MIC [15]: 4

What does the source list for NC[C@H]1O[C@H](O[C@H]2[C@H](O)[C@@H](O[C@H]3O[C@H](CO)[C@@H](O)[C@H](N)[C@H]3O)[C@H](N)C[C@@H]2N)[C@H](N)C[C@@H]1O [Tobramycin]?
MIC [1]: 2; MIC [2]: 2; MIC [3]: 16; MIC [4]: 1 µg/mL (≈ 2.14 µM); MIC [5]: 1 µg/mL (≈ 2.14 µM); MIC [6]: 2 µg/mL (≈ 4.28 µM); MIC [7]: 16 µg/mL (≈ 34.2 µM); MIC [8]: 2; MIC [9]: 32; MIC [10]: 8; MIC [11]: 32; MIC [12]: > 64; MIC [13]: > 64; MIC [14]: 0.5; MIC [15]: 32; MIC [16]: 32
